Measurements taken from EP3250188B1, “PHARMACEUTICAL COMPOSITION COMPRISING APREPITANT AND METHOD FOR THE PREPARATION THEREOF” (Pharmathen S.A., priority 2015, dated 2016).
≈ marks a conversion by molar mass, not a printed value. Where two headings read alike, the source gives them in different places.

Legend:
[1] = Solubility study in FeSSIF (HPLC after 30 min stirring and centrifugation); format: physicochemical
Procedure: For the solubility study, a quantity of the solid dispersion equivalent to 10.0 mg of Aprepitant was dissolved in a 100ml volumetric flask with dissolution medium of fed state simulated intestinal fluid (FeSSIF) to a concentration of 0.1mg/ml. The solution was magnetically stirred for 30min and before injected in the HPLC it was centrifuged at 4000rpm for 5min. Finally the drug concentration was equated to the drug solubility. Table 1: Solubility of solid dispersion prepared according to example 1
Table 8: Solubilities of solid dispersions prepared by melt mixing

[2] = Dissolution, USP type II apparatus (paddles), 50 rpm, FeSSIF; format: physicochemical
Procedure: The rate and extent of drug dissolution was studied using a USP type II apparatus (paddles) at 50 rpm. The dissolution medium was a FeSSIF with pH 5.0. Table 2: Dissolution results of amorphous solid dispersions for different ratios of API to polymer compared with that of Aprepitant alone. The dissolution rate of the solid dispersions that present the best solubility was studied in USP II apparatus, 50rpm, FeSSIF medium.

[3] = cited from earlier work

## C[C@@H](O[C@H]1OCCN(Cc2nc(=O)[nH][nH]2)[C@H]1c1ccc(F)cc1)c1cc(C(F)(F)F)cc(C(F)(F)F)c1 [Aprepitant]
[1]; fed state simulated intestinal fluid (FeSSIF), fessif, thermodynamic from solid, solid dispersions prepared by spray drying, nominal concentration 0.1mg/ml, stirred 30min
  solubility at 30 min: 50 µg/mL (≈ 93.6 µM)
[1]; solid dispersions prepared by melt mixing at the stated temperature
  Solubility in FeSSIF: 50 µg/mL (≈ 93.6 µM)
[2]; 15 min, FeSSIF medium, melt mixed solid dispersions
  % release: 17,37%
[2]; 15 min, FeSSIF pH 5.0, spray dried solid dispersions
  % release: 17,37%
[2]; 30 min, FeSSIF medium, melt mixed solid dispersions
  % release: 38,74%
[2]; 30 min, FeSSIF pH 5.0, spray dried solid dispersions
  % release: 38,74%
[2]; 45 min, FeSSIF medium, melt mixed solid dispersions
  % release: 45,34%
[2]; 45 min, FeSSIF pH 5.0, spray dried solid dispersions
  % release: 45,34%
[2]; 60 min, FeSSIF medium, melt mixed solid dispersions
  % release: 47,38%
[2]; 60 min, FeSSIF pH 5.0, spray dried solid dispersions
  % release: 47,38%
[3]; in acetonitrile
  solubility: slightly soluble
[3]; in ethanol
  solubility: sparingly soluble
[3]; in isopropyl acetate
  solubility: sparingly soluble
[3]; in water
  solubility: practically insoluble
